Assay results as given in patent US11617850B2, “Delivery systems and methods for electric plasma synthesis of nitric oxide” (The General Hospital Corporation, priority 2016, dated 2023).

Columns and labels:
[1] = system: mice (C57BL6 male WT); experiment: Mice breathing air or electrically generated 50 ppm NO in air for 28 days; assay type: in vivo; details: 50 ppm NO in air
From the text: A second chamber 802 was supplied with 50 ppm of NO gas in air, generated by a spark plug generator using platinum-iridium electrodes and subsequently scavenged using 75 g Ca(OH). A plurality of mice (C57BL6 male WT) breathed the NO laden air for the same 28 day period. During the 28 day test, humidity, CO2, O2, NO, and NO2 were monitored intermittently.
Throughout the 28 day test, the mice were weighed in weekly intervals to track a change in the body weight of the mice throughout the 28 day test. […] Once the 28 day test was complete, lung specimens from the mice were analyzed using a high resolution magnetic sector field inductively coupled mass spectrometer (Thermo Fisher, Bremen, Germany).

[2] = system: awake sheep with acute pulmonary hypertension, due to U46619 infusion; experiment: Inhaled electrically generated NO in awake sheep with acute pulmonary hypertension due to U46619 infusion; assay type: in vivo
From the text: Animal studies were approved by the Institutional Animal Care and Use Committee of Massachusetts General Hospital (Boston, Mass.). The NO generator 102 of the NO generation system 100 was coupled to a tracheostomy tube in a spontaneously breathing awake 35 kg sheep.
To induce pulmonary hypertension, a potent pulmonary vasoconstrictor U46619 (Cayman Chemical, Ann Arbor, Mich.), the analog of the endoperoxide prostaglandin H2, was infused intravenously to increase pulmonary arterial pressure (PAP) to 30 mmHg. The pulmonary arterial pressure and PAP was continuously monitored using a Gould 6600 amplifier system (Gould Electronics, Inc., Eastlake, Ohio).
In turn, the electric plasma discharge of the electrodes supplied NO gas to the spontaneously breathing awake sheep during those 0.8 seconds.
Turning to FIGS. 11 and 12, the above-described operation of the NO system 200 (i.e., triggering the NO generator 102 for approximately 0.8 second during early inspiration, for example, 20 milliseconds after commencement of inspiration) was implemented during a NO exposure time 700. Prior to and following the NO exposure time 700, a baseline was generated. The NO generator 102 was configured to output approximately 20 ppm of NO for three different runs (FIG. 11) and was configured to output 5 ppm of NO for another run (FIG. 12).
In addition to PAP, the arterial oxygen saturation was also measured as a function of time in the awake sheep. […] Lastly, the relative arterial oxygen saturation was calculated as a function of time for all four periods of NO inhalation.

## [N]=O [NO, nitric oxide]
[1]
  lung histology (H&E staining of larynx, trachea, main bronchus, lung tissues): no evidence of lung inflammation or pathology
[1]; platinum-iridium electrodes, Ca(OH) scavenger
  iridium and platinum in lung specimens versus control mice (ICP mass spectrometry): no detectable difference
[1]; weighed weekly
  body weight gain versus mice breathing air: did not differ
[2]; 5 ppm NO inhaled
  arterial oxygen saturation (SaO2) during the NO exposure time: generally constant
[2]; 5 ppm NO inhaled, one run
  effect on pulmonary artery pressure (PAP) during the NO exposure time: does not show a measurable effect
[2]; 20 ppm NO inhaled
  arterial oxygen saturation (SaO2) during the NO exposure time: increases
[2]; 20 ppm NO inhaled, three trials
  improvement of relative arterial oxygen saturation during the NO exposure time: approximately 10%
